In patent US20220411525A1, “BCMA AS A TARGET FOR T CELL REDIRECTING ANTIBODIES IN B CELL LYMPHOMAS” (Janssen Pharmaceutica NV, priority 2021, published 2022):

What was measured:
Format in all cases: cell-based
[1] = test system: B cell malignancy cell lines; test: Viability of cell lines under γ-secretase inhibition; settings: 100nM γ-secretase inhibitor, 24-48 h
Experimental: Since BCMA is known to be cleaved off by γ-secretase, it was evaluated whether inhibition of this enzyme would lead to enhanced BCMA levels on these B cell lines. To assess this, the different B cell malignancy lines were incubated for 24-48 h with 100nM γ-secretase inhibitor (Ly411575) and BCMA fold increase was compared to unstimulated cells. Viability of the different cell lines was not affected by γ-secretase inhibition (FIG. 7A). […] Besides the cell lines which already had high basal levels of BCMA (U266, RPMI-8226, MWCL1 and BCWM.1) also cell lines which had low basal expression of BCMA, such as JeKo-1 and OCI-Ly7 were able to upregulate BCMA after γ-secretase inhibition (FIG. 1B). […] This was studied by determination of soluble BCMA (sBCMA) levels in supernatants of B cell malignancy cell lines, which were cultured for 24 or 48h in the absence or presence of γ-secretase inhibitor. Indeed, sBCMA levels were detectable upon culture of different selected cell lines (except for Jurkat), and increased upon longer culture times (FIG. 1C).

[2] = test system: B cell malignancy cell lines; test: BCMA membrane level by flow cytometry after γ-secretase inhibition; settings: 100nM, 24-48 h, all B cell malignancy cell lines
Experimental: (§1) To evaluate whether other malignancies besides multiple myeloma (MM) can potentially be targeted by BCMA directed immunotherapy, B cell malignancy cell lines were assessed for BCMA expression by flow cytometry. […] Per FIG. 1A, B cell malignancy cell lines were cultured and basal levels of BCMA were assessed by flow cytometry and compared to isotype controls. (n=3-8). Dotted line indicates no increase compared to isotype control. In accordance with FIG. 1B, cell lines were treated for 24-48h with 100nM γ-secretase inhibitor or with medium control and BCMA was assessed by flow cytometry. Values are represented as fold increase compared to 0 nM γ-secretase inhibitor. (n=3-12) Dotted line indicates no increase compared to 0 nM γ-secretase inhibitor. FIG. 1C represents the results of an asssessment of soluble BCMA by ELISA in supernatants of B cell malignancy cell lines after treatment with 0 nM or 100 nM γ-secretase inhibitor for 24-48 h. (n=2). […] The P value was calculated by paired t test of Wilcoxon test (FIG. 1A-1B) or simple linear regression (FIG. 1E). […]
(§2) Since BCMA is known to be cleaved off by γ-secretase, it was evaluated whether inhibition of this enzyme would lead to enhanced BCMA levels on these B cell lines. […]
Flow cytometry. […] After antibody staining, samples were washed using PBA and acquired on BD FACS Canto or LSR Fortessa flow cytometer and analysed with FlowJo v10. […]

[3] = test system: B cell malignancy cell lines; test: BCMA mRNA relative to GAPDH by qPCR in cell lines; settings: 100 nM, 24 h, prior and after γ-secretase inhibition
Experimental: as §1, with “inhibitor.” for “inhibitor. FIG. 1C represents the results of an asssessment of soluble BCMA by ELISA in supernatants of B cell malignancy cell lines after treatment with 0 nM or 100 nM γ-secretase inhibitor for 24-48 h. (n=2).”
as §2
BCMA characterization by flow cytometry and quantitative polymerase chain reaction. […] After 24 or 48 h BCMA was detected by flow cytometry as described above. Relative expression was calculated compared to isotype controls. […]

SMILES: C[C@H](NC(=O)[C@@H](O)c1cc(F)cc(F)c1)C(=O)N[C@@H]1C(=O)N(C)c2ccccc2-c2ccccc21 [Ly411575]
- Viability of the different cell lines [1]: not affected
- BCMA level after γ-secretase inhibition compared to unstimulated cells [2]: increased BCMA level
- BCMA mRNA levels [3]: remained equal
